Key:
A549 [1] = assay: Antiproliferative activity against human A549 cells assessed as inhibition of cell viability measured after 72 hrs by CCK-8 assay; assay type: functional, cell-based; conditions: A549, 72 h
[2] = Anticancer activity against human KBV cells assessed as reduction in cell growth measured after 72 hrs by SRB assay; assay type: functional, cell-based
HL-60 = assay: Antiproliferative activity against human HL-60 cells assessed as reduction in cell viability incubated for 48 hrs by MTT assay; assay type: functional, cell-based; conditions: HL-60, 48 h
[3] = Cytotoxicity against Sf9 cells assessed as inhibition of cell growth measured after 24 hrs by MTT assay; assay type: toxicity, cell-based; conditions: Spodoptera frugiperda
A549 [4] = assay: Antitumor activity against human A549 cells assessed as reduction in cell viability incubated for 72 hrs by CCK-8 assay; assay type: functional, cell-based; conditions: A549, 72 h
PC-3M = assay: Cytotoxicity against human PC-3M cells assessed as reduction in cell viability measured after 72 hrs by MTS assay; assay type: functional, cell-based
HT-29 = assay: Antiproliferative activity against human HT-29 cells assessed as reduction in cell viability incubated for 72 hrs by MTT assay; assay type: functional, cell-based; conditions: HT-29, 72 h
HepG2 = assay: Antiproliferative activity against human HepG2 cells assessed as reduction in cell viability incubated for 72 hrs by MTT assay; assay type: functional, cell-based; conditions: HepG2, 72 h
[5] = Antitumor activity against mouse RM1 cells xenografted in C57BL/6 mouse assessed as tumor growth inhibition at 9 mg/kg, ip administered every other day for 3 times and measured on day 7 relative to control; assay type: functional; conditions: RM1, 168 h, time 7 day, read-out: TGI

CC[C@]1(O)c2cc3n(c(=O)c2CO[C@H]1F)Cc1cc2c4c(ccc2nc1-3)OCN(C1CCC1)C4
IC50 (A549 [1]): 630 nM

CC[C@@]1(O)C(=O)OCc2c1cc1n(c2=O)Cc2c-1nc1ccccc1c2CN1CCN(C(=S)Nc2ccccc2OC)CC1
IC50 [2]: 514000 nM

CC[C@]1(O)c2cc3n(c(=O)c2CO[C@H]1F)Cc1cc2c4c(ccc2nc1-3)OCN(C1CC1)C4
IC50 (A549 [1]): 630 nM

CC[C@]1(O)c2cc3n(c(=O)c2CO[C@H]1F)Cc1cc2c4c(ccc2nc1-3)OCN(C1CCCC1)C4
IC50 (A549 [1]): 630 nM

CC[C@@]1(OCc2cn([C@@H]3c4cc5c(cc4[C@@H](c4cc(OC)c(O)c(OC)c4)[C@H]4C(=O)OC[C@@H]43)OCO5)nn2)C(=O)OCc2c1cc1n(c2=O)Cc2cc3ccccc3nc2-1
IC50 (HL-60): 17700 nM

CCCCCNC(=O)c1c2c(nc3ccccc13)-c1cc3c(c(=O)n1C2)COC(=O)[C@]3(O)CC
IC50 at 24 h [3]: 2010 nM

CC[C@@]1(OC(=O)[C@@H](Cc2ccccc2)NC(=O)OC(C)(C)C)C(=O)OCc2c1cc1n(c2=O)Cc2cc3ccccc3nc2-1
IC50 (A549 [4]): 18 nM
IC50 (PC-3M): 88 nM

CC[C@@]1(O)C(=O)OCc2c1cc1n(c2=O)Cc2c-1nc1ccccc1c2C(=O)NCc1ccccc1
IC50 at 24 h [3]: 2010 nM

CC[C@@]1(O)C(=O)OCc2c1cc1n(c2=O)Cc2c-1nc1ccccc1c2CN1CCN(C(=S)Nc2cccc3ccccc23)CC1
IC50 [2]: 275000 nM

CCCCCCCCCCCCCCCCOC(=O)[C@@]1(C)CCc2c(C)c(OC(=O)CCC(=O)O[C@]3(CC)C(=O)OCc4c3cc3n(c4=O)Cc4c-3nc3ccc(O)cc3c4CC)c(C)c(C)c2O1
IC50 (HT-29): 45.1 nM
IC50 (HepG2): 165 nM

CC[C@@]1(O)C(=O)OCc2c1cc1n(c2=O)Cc2c-1nc1ccccc1c2C(=O)NCc1ccc(F)cc1
IC50 at 24 h [3]: 2010 nM

CC[C@@]1(OC(=O)CCC(=O)O[C@@H]2O[C@@H](C)[C@H](OC(C)=O)[C@@H](OC(C)=O)[C@H]2OC(C)=O)C(=O)OCc2c1cc1n(c2=O)Cc2cc3cc4c(cc3nc2-1)OCO4
inhibition in vivo at 9 mg/kg [5]: 44.9%

CC[C@]1(O)c2cc3n(c(=O)c2CO[C@H]1F)Cc1cc2c4c(ccc2nc1-3)OCN(C1CCCCC1)C4
IC50 (A549 [1]): 630 nM

— ChEMBL document CHEMBL5625230, “The recent developments of camptothecin and its derivatives as potential anti-tumor agents” (Eur J Med Chem, 2023)
